Laboratory results taken from US20100298141A1, “SUBSTITUTED PYRIDINE N-OXIDE HERBICIDES” (E. I. DU PONT DE NEMOURS AND COMPANY, priority 2007, published 2010).

Experiments:
corn = experiment: Test C pre-/postemergence test; format: in vivo, Zea mays
Procedure, shortened: (§1)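 Test chemicals were formulated with surfactant in a non-phytotoxic solvent and sprayed both on freshly planted seeds (preemergence) and on 1- to 4-leaf plants of 2–18 cm (postemergence). Flooded-paddy pots received compound directly into 3 cm of standing water, maintained for the test.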

barnyardgrass = experiment: Test C flooded paddy test; format: in vivo, Echinochloa crus-galli; conditions: Flood
Procedure, shortened: (§2)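 Flooded 3 cm over soil; compound into paddy water; depth kept constant. Greenhouse 13–15 d.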

giant foxtail = experiment: Test C pre-/postemergence test; format: in vivo, Setaria faberii
Procedure, shortened: as §1

velvetleaf [1] = experiment: Test A pre-/postemergence greenhouse test; format: in vivo, Abutilon theophrasti; conditions: for Velvetleaf plant response rating: 0 to 100 scale
Procedure, shortened: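 Each test compound, dissolved in a non-phytotoxic solvent mixture with surfactant, was sprayed directly onto seeded soil (loam/sand blend) and, at the same moment, onto seedlings carrying one to two leaves. Around ten greenhouse days later, plants were rated visually for injury relative to untreated controls.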

velvetleaf [2] = experiment: Test C pre-/postemergence test; format: in vivo, Abutilon theophrasti
Procedure, shortened: as §1

soybean = experiment: Test C pre-/postemergence test; format: in vivo, Glycine max
Procedure, shortened: as §1

duck salad = experiment: Test C flooded paddy test; format: in vivo, Heteranthera limosa; conditions: Flood
Procedure, shortened: as §2

johnsongrass = experiment: Test C pre-/postemergence test; format: in vivo, Sorghum halepense
Procedure, shortened: as §1

Italian ryegrass = experiment: Test C pre-/postemergence test; format: in vivo, Lolium multiflorum
Procedure, shortened: as §1

cocklebur = experiment: Test C pre-/postemergence test; format: in vivo, Xanthium strumarium
Procedure, shortened: as §1

morningglory = experiment: Test C pre-/postemergence test; format: in vivo, Ipomoea coccinea
Procedure, shortened: as §1

green foxtail = experiment: Test C pre-/postemergence test; format: in vivo, Setaria viridis
Procedure, shortened: as §1

downy brome = experiment: Test C pre-/postemergence test; format: in vivo, Bromus tectorum
Procedure, shortened: as §1

catchweed bedstraw = experiment: Test C pre-/postemergence test; format: in vivo, Galium aparine
Procedure, shortened: as §1

woolly cupgrass = experiment: Test C pre-/postemergence test; format: in vivo, Eriochloa villosa
Procedure, shortened: as §1

blackgrass = experiment: Test C pre-/postemergence test; format: in vivo, Alopecurus myosuroides
Procedure, shortened: as §1

wild oat = experiment: Test C pre-/postemergence test; format: in vivo, Avena fatua
Procedure, shortened: as §1

[3] = 62 g ai/ha, Preemergence, scale 0 to 100
[4] = 125 g ai/ha, preemergence, scale 0 (no effect) to 100 (complete control)
[5] = Preemergence, 31 g ai/ha, scale 0 to 100 (0 no effect, 100 complete control)
[6] = preemergence, 250 g ai/ha, scale 0 (no effect) to 100 (complete control)
[7] = 62 g ai/ha, scale 0 to 100 (0 no effect, 100 complete control)
[8] = 250 g ai/ha, scale 0 to 100, 0 no effect, 100 complete control, 13 to 15 days

CC(Oc1c(C[S+]([O-])c2ccc(Cl)c[n+]2[O-])c(C(F)(F)F)nn1C)C(F)(F)F (centres unmarked) [Compound 87]
100: Foxtail, Giant plant response rating (giant foxtail; [4]) | Foxtail, Giant plant response rating (giant foxtail; [6]) | Velvetleaf plant response rating (velvetleaf [1]; Preemergence, 500 g ai/ha, 0 no effect, 100 complete control) | Plant response rating, Ducksalad (duck salad; [8]) | Johnsongrass plant response rating (johnsongrass; [3]) | Johnsongrass plant response rating (johnsongrass; [4]) | Johnsongrass plant response rating (johnsongrass; [6]) | Ryegrass, Italian plant response rating (Italian ryegrass; [4]) | Ryegrass, Italian plant response rating (Italian ryegrass; [6]) | Foxtail, Green plant response rating (green foxtail; [3]) | Foxtail, Green plant response rating (green foxtail; [4]) | Foxtail, Green plant response rating (green foxtail; [6]) | Bromegrass, Downy plant response rating (downy brome; [6]) | Galium plant response rating (catchweed bedstraw; [4]) | Galium plant response rating (catchweed bedstraw; [6]) | Cupgrass, Woolly plant response rating (woolly cupgrass; [6]) | Blackgrass plant response rating (blackgrass; [3]) | Blackgrass plant response rating (blackgrass; [4]) | Plant response rating, Blackgrass (blackgrass; [5]) | Blackgrass plant response rating (blackgrass; [6]) | Oat, Wild plant response rating (wild oat; [6])
85: Plant response rating, Corn (corn; [5]) | Plant response rating, Foxtail, Giant (giant foxtail; [5])
95: Corn plant response rating (corn; [3]) | Corn plant response rating (corn; [4]) | Foxtail, Giant plant response rating (giant foxtail; [3]) | Velvetleaf plant response rating (velvetleaf [2]; [6]) | Ryegrass, Italian plant response rating (Italian ryegrass; [3]) | Plant response rating, Ryegrass, Italian (Italian ryegrass; [5]) | Morningglory plant response rating (morningglory; [6]) | Plant response rating, Foxtail, Green (green foxtail; [5])
40: Cocklebur plant response rating (cocklebur; [6])
60: Plant response rating, Morningglory (morningglory; [5])
5: Velvetleaf plant response rating (velvetleaf [2]; [3])
20: Cocklebur plant response rating (cocklebur; [4])
65: Soybean plant response rating (soybean; [3]) | Plant response rating, Soybean (soybean; [5])
90: Plant response rating, Barnyardgrass (barnyardgrass; [8]) | Plant response rating, Johnsongrass (johnsongrass; [5]) | Cupgrass, Woolly plant response rating (woolly cupgrass; [3]) | Oat, Wild plant response rating (wild oat; [3]) | Oat, Wild plant response rating (wild oat; [4])
30: Plant response rating, Barnyardgrass (barnyardgrass; [7])
70: Plant response rating, Velvetleaf (velvetleaf [1]; Postemergence, 125 g ai/ha, 0 to 100 scale where 0 is no effect and 100 is complete control) | Velvetleaf plant response rating (velvetleaf [2]; [4]) | Plant response rating, Galium (catchweed bedstraw; [5])
50: Plant response rating, Ducksalad (duck salad; [7])
80: Velvetleaf plant response rating (velvetleaf [1]; Postemergence, 500 g ai/ha, 0 is no effect, 100 is complete control) | Velvetleaf plant response rating (velvetleaf [1]; Preemergence, 125 g ai/ha, 0 no effect, 100 complete control) | Soybean plant response rating (soybean; [4]) | Soybean plant response rating (soybean; [6]) | Morningglory plant response rating (morningglory; [3]) | Morningglory plant response rating (morningglory; [4]) | Plant response rating, Bromegrass, Downy (downy brome; [5]) | Galium plant response rating (catchweed bedstraw; [3]) | Plant response rating, Cupgrass, Woolly (woolly cupgrass; [5]) | Plant response rating, Oat, Wild (wild oat; [5])
98: Corn plant response rating (corn; [6]) | Cupgrass, Woolly plant response rating (woolly cupgrass; [4])
0: Plant response rating, Velvetleaf (velvetleaf [2]; [5]) | Cocklebur plant response rating (cocklebur; [3]) | Plant response rating, Cocklebur (cocklebur; [5])
